Results from patent US8551951B2, “Pharmaceutical preparations and methods for inhibiting tumors” (Aenorasis SA Pharmaceuticals and Medical Devices, priority 2000, dated 2013).

Key:
[1] = test system: PC-3 human prostate tumor; assay: PC-3 human prostate tumor in nude mice, subcutaneous treatment for 14 days (Examples 10 and 11); format: in vivo, Nude mouse; conditions: 10 μg/kg body weight per day s.c.
Procedure: PC-3 human prostate tumor was obtained from ATCC (ATCC 1435). PC-3 cells were grown in RPMI media containing 10% (v/v) of fetal calf serum and were harvested in the logarithmic phase of growth by trypsinization. Cells were centrifuged at 1200 rotation per minute (rpm) and washed three timed with Hanks balanced salt solution (HBSS). Following washing, cells were counted and adjusted to a concentration of 1×10^7 cells/ml in HBSS. A 0.1 ml volume of tumor cell inoculum containing 1×10^6 cells was administered subcutaneously into the two opposite flank region of each Nude mouse (Nu/Nu, BALE/c background). Tumor growth was monitored for approximately 18 days. Once tumor growth has been established (volume of tumor reached a volume of 50 mm^3) treatment with rHuPSP94 (SEQ ID NO: 2) was initiated and was performed once a day for 14 days by the subcutaneous route. Based on the assigned treatment groups illustrated in table 4.
PC-3 human prostate tumor (ATCC 1435) obtained from ATCC was implanted bilaterally into nude mice and tumor growth was monitored for approximately 18 days. PC-3 cells were injected once subcutaneously into each flank of the mice. Once tumor growth has been established (i.e., volume of tumor reached 0.25 to 0.50 cm^3) the treatment with decapeptide (SEQ ID NO: 3), native PSP94 (SEQ ID NO: 1) and control scrambled polypeptide PB111 was initiated and was performed once a day for 14 days by the subcutaneous route based on the treatment groups (randomly assigned) illustrated in table 5.

PC-3 cells [2] = assay: clonogenicity assay (colony formation); format: cell-based, human
Procedure: The synthetic decapeptide (SEQ ID NO: 3) has been shown herein to mimic the biological activity of native PSP94 (nPSP94) (SEQ ID NO: 1) and therefore its effect on the PC-3 cells was studied in clonogenicity assay (colony formation). Cells were seeded in Costar 96 well cell culture flat bottom plates in RPMI supplemented media containing 50 μg/ml of bovine serum albumin (BSA) and 0.1 μM FeSO4. Clonogenicity was evaluated for PC-3 cells grown in the presence of various concentration of the decapeptide after 9 days of culture (FIG. 4a). A parallel experiment was performed with various concentration of nPSP94 using the same experimental conditions (FIG. 4b). Other experiments evaluating clonogenicity was performed with the decapeptide (FIG. 5a) or nPSP94 (FIG. 5b) after 21 days of culture as well as after 10 days of culture (FIG. 6a: Decapeptide and FIG. 6b: nPSP94).

PC-3 cells [3] = assay: DNA fragmentation assay (DNA ladder, apoptosis); format: cell-based, human; conditions: various concentrations, 72 hours
Procedure: Cell apoptosis result in DNA fragmentation can be evaluated by the presence of a DNA ladder visualized when DNA is run on a 1.2% agarose gel. DNA ladder assay (apoptosis assay) was performed following exposure of PC-3 to various concentrations of the polypeptides for 72 hours. The polypeptides that were used in this particular experiment are polypeptide 7-21 (SEQ ID NO: 4), polypeptide PCK3145 (SEQ ID NO: 5) and polypeptide 76-94 (SEQ ID NO: 6). […] This effect was especially evident following treatment with PCK3145 (SEQ ID NO: 5), which is illustrated by FIG. 7. Lane 1 of the gel illustrated in FIG. 7 represents a lambda HindIII digest standard.
Apoptosis of PC-3 cells, following a 72 hours exposure to PCK3145 at 500 μg/ml concentration, was evaluated in supplemented media by DNA fragmentation assay. Doxorubicin was used as a reference positive control. Untreated cells and PCK3145-treated cells were harvested and the DNA was isolated. Isolated DNA was run on a 1.2% agarose gel containing Ethidium Bromide (EtBr). […] Lane 1 of the gel illustrated in FIG. 25 represents the DNA marker (100 base pair DNA ladder). Lane 2 of the gel illustrated in FIG. 25 represents a control of untreated PC-3 cells.

[4] = test system: human prostate cancer cells PC-3; assay: MTS assay, growth inhibitory effect on PC-3 cells; format: cell-based; conditions: 72 hours
Excerpt: Cell proliferation was monitored on PC-3 cells using the MTS/PMS (phenazine methosulfate) kit (Promega), which primarily measures mitochondrial activity of live cells. The basic principle of this method involves the fact that the mitochondrial enzymes of the live cells metabolize the MTS/PMS dyes forming a brown colored precipitate which can be measured as optical density (OD) by absorption at 490 nm in a spectrophotometer. Therefore, the OD values are proportional to the number of living cells. In addition, monitoring of cell morphology was also performed. Cell morphology would be indicative of their health status. For example, viable cells would appear adherent and spread out whereas dead cells would be in suspension in the media and would appear granular and round.
PC-3 cells (ATCC, Lot AT06) used in these experiments were at a passage number lower or equal to 70 (n≧70). Cells were seeded in Costar 96 well cell culture flat bottom plates in RPMI supplemented media containing 50 μg/ml of bovine serum albumin (BSA) and 0.1 μM FeSO4. Peptide was diluted in the same media. Cells were continuously exposed to the polypeptides of the present invention for 72 hours without changing media. Native PSP94 or rHuPSP94 concentrated two fold were directly added to wells and diluted to 1× in order to minimize cell manipulation and avoid detachment.
Native PSP94, rHuPSP94, polypeptide 22-36 and PB111 polypeptide (scrambled polypeptide) were also included in this experiment as controls. Cell proliferation assay was performed on either PC-3 cells or normal fibroblasts (used here as control) using the MTS/PMS kit (Promega). Four thousand cells (FIGS. 9 and 10) or three thousand (FIG. 11) cells were seeded in Costar 96 well cell culture flat bottom plates in RPMI supplemented media containing 50 μg/ml of bovine serum albumin (BSA) and 0.1 μM FeSO4. In addition, monitoring of cell morphology was also performed.
This assay measures the mitochondrial activity of the live cells. The basic principle of this method involves the fact that the mitochondrial enzymes of the live cells metabolize the MTS/PMS dyes forming a brown colored precipitate which can be measured as optical density (OD) by absorption at 490 nm in a spectrophotometer. Therefore, the OD values are proportional to the number of living cells.
In addition, a visual observation of the cells was also done to check the cell morphology, which could also be indicative of cell growth. The following conditions for MTS assay were used: PC-3 (ATCC, Lot AT06), passage number n≧70, cell line adapted to grow in serum-free OPTI-MEM and in RPMI supplemented with BSA (50 μg/ml) and Ferrous Sulfate (0.1 μM), continuous exposure for up to 72 hours without changing media (i.e., adding PCK3145 at 2× concentration directly to wells and diluting it 1:2 to 1× to minimize cell manipulation and avoid detachment).

PC-3 cells [5] = assay: Apoptosis assay by ELISA plus; format: cell-based, human; conditions: 22.5 μM to 90 μM, 72 hours
Procedure: The three polypeptides (SEQ ID NO: 4, SEQ ID NO: 5 and SEQ ID NO 6) and native PSP94 used here as a positive control were tested in ELISA plus assay to measure cell death through apoptosis. Briefly, the ELISA plus assay is a sandwich enzyme immunoassay able to measure mono- and oligonucleosomes present in the cytoplasmic fraction of cell lysate using two antibodies, one directed against DNA and the other directed against histones. The apoptotic cell death is characterized by activation of endogenous endonucleases (e.g., calcium- and magnesium-dependant), which cleave double-stranded DNA at the most accessible internucleosomal linker region, generating mono- and oligonucleosomes. The enrichment of mono- and oligonucleosomes in the cytoplasm of the apoptotic cells is due to the fact that DNA degradation occurs several hours before plasma membrane breakdown.
Four thousand cells were seeded in Costar 96 well cell culture flat bottom plates in RPMI supplemented media containing 50 μg/ml of bovine serum albumin (BSA) and 0.1 μM FeSO4. The PC-3 cells were treated with various concentrations (22.5 μM to 90 μM) of polypeptides for 72 hours. Apoptosis assay was done as per manufacturer's instructions using the ApopTag kit (Boeringher Mannheim).

Substance | tumor growth (tumor volume) [1] | decrease in colony number (PC-3 cells [2]; 1 μg/ml) | decrease in colony number (PC-3 cells [2]; 10 μg/ml) | DNA laddering effect (PC-3 cells [3]) | growth inhibition of PC-3 cells (FIG. 10) [4] | apoptotic cell death effect (PC-3 cells [5])
decapeptide: synthetic decapeptide as set forth in SEQ ID NO: 3, mimics the biological activity of native PSP94 (YTCSVSEPGI; decapeptide) | significant (p<0.05) tumor growth reduction | 40% | up to 60% |  |  | 
polypeptide 76-94: PSP94 derived synthetic polypeptide from the carboxy terminus end, SEQ ID NO: 6 (IVVEKKDPKKTCSVSEWII; Polypeptide 76-94) |  |  |  | induced a DNA laddering effect characteristic of apoptosis | significant growth inhibition | dose dependent increase in the apoptotic cell death effect
